Measured values reported in US8501786B2, “Hydroxymethyl pyrrolidines as beta 3 adrenergic receptor agonists” (Merck Sharp & Dohme Corp., priority 2009, dated 2013).
Where a name gives a salt, the structure may show the parent alone. Read-outs that look alike come from different tables or passages of the source.

Target: T1, human β3 adrenergic receptor (Homo sapiens, UniProt P13945)
T1 construct: stably transfected with the cloned β-adrenergic receptor (β1, β2 or β3); expressed in transfected cells; host or cells: Chinese hamster ovary (CHO) cells, stably transfected
T1 sequence (P13945 whole entry): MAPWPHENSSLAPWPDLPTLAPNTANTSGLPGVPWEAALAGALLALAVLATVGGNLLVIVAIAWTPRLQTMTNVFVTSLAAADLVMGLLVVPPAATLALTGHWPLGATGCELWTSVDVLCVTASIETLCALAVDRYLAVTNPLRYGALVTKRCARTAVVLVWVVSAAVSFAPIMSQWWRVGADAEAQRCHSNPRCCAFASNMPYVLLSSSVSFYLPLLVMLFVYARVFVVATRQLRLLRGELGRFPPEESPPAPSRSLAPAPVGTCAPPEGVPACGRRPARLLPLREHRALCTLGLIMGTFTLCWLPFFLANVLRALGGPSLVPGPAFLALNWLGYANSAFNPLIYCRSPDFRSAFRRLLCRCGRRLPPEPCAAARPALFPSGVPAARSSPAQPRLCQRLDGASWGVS
Assay: Functional assay: cAMP production (LANCE TR-FRET) in CHO cells stably transfected with cloned β3 adrenergic receptor
Assay type: cell-based

[1] = cAMP production, CHO cells expressing human β3 AR, read-out: human Beta-3 agonist functional activity
[2] = Table 5, human β3 functional activity given as ranges, read-out: Human β3 functional
[3] = Table 2, cAMP production, CHO cells expressing human β3 AR, read-out: Human β3 functional

SMILES | EC50 [3] [nM] | also measured
COCCC(C(=O)Nc1ccc(CC2CC[C@H]([C@H](O)c3cccnc3)N2)cc1)n1cccn1 (single isomer, unassigned) [Example 221] | – | EC50 (Table 3, cAMP production, CHO cells expressing human β3 AR, read-out: Human β3 functional): 1 to 10 nM
O=C(Nc1ccc(CC2CCC(C(O)c3cccnc3)N2)cc1Br)C1CCc2sc(Br)nc21 (single isomer, unassigned) [Example 240, (4S or 4R)-2-bromo-N-[2-bromo-4-({(2S,5R)-5-[(R)-hydroxy(pyridin-3-yl)methyl]pyrrolidin-2-yl}methyl)phenyl]-5,6-dihydro-4H-cyclopenta[d][1,3]thiazole-4-carboxamide] | – | EC50 [1]: < 1000 nM
O=C(Nc1ccc(CC2CCC(C(O)c3cccnc3)N2)cc1Br)C1CCc2sc(Br)nc21 (single isomer, unassigned) [Example 241, (4S or 4R)-2-bromo-N-[2-bromo-4-({(2S,5R)-5-[(R)-hydroxy(pyridin-3-yl)methyl]pyrrolidin-2-yl}methyl)phenyl]-5,6-dihydro-4H-cyclopenta[d][1,3]thiazole-4-carboxamide] | – | EC50 [1]: < 100 nM
O=C(Nc1ccc(CC2CC[C@H]([C@H](O)c3cccnc3)N2)cc1Br)C1CCc2sc(I)nc21 (single isomer, unassigned) [Example 243] | – | EC50 [2]: 101 to 1000 nM
O=C(Nc1ccc(CC2CC[C@H]([C@H](O)c3cccnc3)N2)cc1Br)C1CCc2sc(I)nc21 (single isomer, unassigned) [Example 244] | – | EC50 [2]: 11 to 100 nM
Nc1nc(CC(=O)Nc2ccc(C[C@@H]3CC[C@H]([C@H](O)c4cccnc4)N3)cc2)cs1 [Example 1, 2-2-Amino-1,3-thiazol-4-yl)-N-[4-({(2S,5R)-5-[(R)-hydroxy(pyridin-3-yl)methyl]pyrrolidin-2-yl}methyl)phenyl]acetamide, trfluoroacetic acid salt] | – | EC50 [1]: < 10 nM
O=C(CN1CCCC1=O)Nc1ccc(C[C@@H]2CC[C@H]([C@H](O)c3cccnc3)N2)cc1 [Example 2, N-[4-({(2S,5R)-5-[(R)-Hydroxy(pyridin-3-yl)methyl]pyrrolidin-2-yl}methyl)phenyl]-2-(2-oxopyrrolidin-1-yl)acetamide, trfluoroacetic acid salt] | – | EC50 [1]: < 100 nM
O=C(Cn1cc2ccccc2n1)Nc1ccc(CC2CC[C@H]([C@H](O)c3cccnc3)N2)cc1 (stereo partly shown) [Example 6] | 11 to 100 | –
O=C(Cn1nc2ccccc2n1)Nc1ccc(CC2CC[C@H]([C@H](O)c3cccnc3)N2)cc1 (stereo partly shown) [Example 7] | 11 to 100 | –
O=C(Cn1nc(Cc2ccccc2)c2ccccc2c1=O)Nc1ccc(CC2CC[C@H]([C@H](O)c3cccnc3)N2)cc1 (stereo partly shown) [Example 8] | 1 to 10 | –
Cc1nn(CC(=O)Nc2ccc(CC3CC[C@H]([C@H](O)c4cccnc4)N3)cc2)c(=O)c2ccccc12 (stereo partly shown) [Example 9] | 1 to 10 | –
Cc1nc(CC(=O)Nc2ccc(CC3CC[C@H]([C@H](O)c4cccnc4)N3)cc2)c(C)s1 (stereo partly shown) [Example 10] | 11 to 100 | –
O=C(Cc1ccccn1)Nc1ccc(CC2CC[C@H]([C@H](O)c3cccnc3)N2)cc1 (stereo partly shown) [Example 14] | 11 to 100 | –
Cc1nc(CC(=O)Nc2ccc(CC3CC[C@H]([C@H](O)c4cccnc4)N3)cc2)cs1 (stereo partly shown) [Example 15] | 11 to 100 | –
O=C(Cc1c(-c2ccccc2)[nH]c2ccccc12)Nc1ccc(CC2CC[C@H]([C@H](O)c3cccnc3)N2)cc1 (stereo partly shown) [Example 16] | 11 to 100 | –
O=C(Cc1nc2ccccc2[nH]1)Nc1ccc(CC2CC[C@H]([C@H](O)c3cccnc3)N2)cc1 (stereo partly shown) [Example 17] | 11 to 100 | –
O=C(Cc1c[nH]c2ccccc12)Nc1ccc(CC2CC[C@H]([C@H](O)c3cccnc3)N2)cc1 (stereo partly shown) [Example 19] | 1 to 10 | –
Cc1sc2ncn(CC(=O)Nc3ccc(CC4CC[C@H]([C@H](O)c5cccnc5)N4)cc3)c(=O)c2c1C (stereo partly shown) [Example 21] | 1 to 10 | –
Cc1nnc(CC(=O)Nc2ccc(CC3CC[C@H]([C@H](O)c4cccnc4)N3)cc2)[nH]1 (stereo partly shown) [Example 23] | 101 to 1000 | –
O=C(Cc1nnc(-c2ccc(Cl)cc2)[nH]1)Nc1ccc(CC2CC[C@H]([C@H](O)c3cccnc3)N2)cc1 (stereo partly shown) [Example 24] | 11 to 100 | –

SMILES | EC50 [3] [nM] | also measured
O=C(Cc1nnc(-c2ccncc2)[nH]1)Nc1ccc(CC2CC[C@H]([C@H](O)c3cccnc3)N2)cc1 (stereo partly shown) [Example 25] | 11 to 100 | –
O=C(Cc1nnc(Cc2ccccc2)[nH]1)Nc1ccc(CC2CC[C@H]([C@H](O)c3cccnc3)N2)cc1 (stereo partly shown) [Example 26] | 11 to 100 | –
O=C(Nc1ccc(CC2CC[C@H]([C@H](O)c3cccnc3)N2)cc1)[C@@H]1CCCN1c1nccs1 (stereo partly shown) [Example 30] | 1 to 10 | –
COc1cccc(N2CCC[C@H]2C(=O)Nc2ccc(CC3CC[C@H]([C@H](O)c4cccnc4)N3)cc2)c1 (stereo partly shown) [Example 31] | 1 to 10 | –
O=C(Nc1ccc(CC2CC[C@H]([C@H](O)c3cccnc3)N2)cc1)c1ccccc1-c1ncc[nH]1 (stereo partly shown) [Example 33] | 11 to 100 | –
O=C(Nc1ccc(CC2CC[C@H]([C@H](O)c3cccnc3)N2)cc1)c1ccccc1-c1nc2ccccc2s1 (stereo partly shown) [Example 34] | 11 to 100 | –
O=C(Nc1ccc(CC2CC[C@H]([C@H](O)c3cccnc3)N2)cc1)c1ccccc1-n1nccn1 (stereo partly shown) [Example 35] | 11 to 100 | –
O=C(Cn1ccccc1=O)Nc1ccc(CC2CC[C@H]([C@H](O)c3cccnc3)N2)cc1 (stereo partly shown) [Example 40] | 1 to 10 | –
O=C(CN1CCCCC1=O)Nc1ccc(CC2CC[C@H]([C@H](O)c3cccnc3)N2)cc1 (stereo partly shown) [Example 42] | 11 to 100 | –
O=C(CN1C(=O)CCC1=O)Nc1ccc(CC2CC[C@H]([C@H](O)c3cccnc3)N2)cc1 (stereo partly shown) [Example 43] | 11 to 100 | –
O=C(CN1CCOC1=O)Nc1ccc(CC2CC[C@H]([C@H](O)c3cccnc3)N2)cc1 (stereo partly shown) [Example 44] | 11 to 100 | –
O=C(Cc1cncnc1O)Nc1ccc(CC2CC[C@H]([C@H](O)c3cccnc3)N2)cc1 (stereo partly shown) [Example 47] | 11 to 100 | –
Nc1ncncc1CC(=O)Nc1ccc(CC2CC[C@H]([C@H](O)c3cccnc3)N2)cc1 (stereo partly shown) [Example 49] | 11 to 100 | –
CNc1ncncc1CC(=O)Nc1ccc(CC2CC[C@H]([C@H](O)c3cccnc3)N2)cc1 (stereo partly shown) [Example 50] | 101 to 1000 | –
O=C(Cn1ncccc1=O)Nc1ccc(CC2CC[C@H]([C@H](O)c3cccnc3)N2)cc1 (stereo partly shown) [Example 52] | 1 to 10 | –
O=C(Cn1cnccc1=O)Nc1ccc(CC2CC[C@H]([C@H](O)c3cccnc3)N2)cc1 (stereo partly shown) [Example 53] | 1 to 10 | –
O=C(Nc1ccc(CC2CC[C@H]([C@H](O)c3cccnc3)N2)cc1)c1c[nH]c2cccnc12 (stereo partly shown) [Example 54] | 101 to 1000 | –
O=C(Cc1nnn[nH]1)Nc1ccc(CC2CC[C@H]([C@H](O)c3cccnc3)N2)cc1 (stereo partly shown) [Example 55] | 11 to 100 | –
NC(=O)c1nn(CC(=O)Nc2ccc(CC3CC[C@H]([C@H](O)c4cccnc4)N3)cc2)c(=O)c2ccccc12 (stereo partly shown) [Example 56] | 1 to 10 | –
Cc1cccc2c(=O)n(CC(=O)Nc3ccc(CC4CC[C@H]([C@H](O)c5cccnc5)N4)cc3)cnc12 (stereo partly shown) [Example 59] | 1 to 10 | –

Continued, in another order:

EC50 [3] [nM] | SMILES | also measured
1 to 10 | Nc1nc(CC(=O)Nc2ccc(CC3CC[C@H]([C@H](O)c4cccnc4)N3)cc2)cs1 (stereo partly shown) [Example 3] | –
1 to 10 | O=C(Cc1n[nH]c(-c2ccccc2)n1)Nc1ccc(CC2CC[C@H]([C@H](O)c3cccnc3)N2)cc1 (stereo partly shown) [Example 4] | –
11 to 100 | O=C(Cn1ncc2ccccc21)Nc1ccc(CC2CC[C@H]([C@H](O)c3cccnc3)N2)cc1 (stereo partly shown) [Example 5] | –
1 to 10 | Cc1nc2ccccc2c(=O)n1CC(=O)Nc1ccc(CC2CC[C@H]([C@H](O)c3cccnc3)N2)cc1 (stereo partly shown) [Example 11] | –
1 to 10 | O=C(Cn1c(=O)ncc2ccccc21)Nc1ccc(CC2CC[C@H]([C@H](O)c3cccnc3)N2)cc1 (stereo partly shown) [Example 13] | –
11 to 100 | O=C(Cn1c(-c2ccccc2)nc2ccccc21)Nc1ccc(CC2CC[C@H]([C@H](O)c3cccnc3)N2)cc1 (stereo partly shown) [Example 18] | –
1 to 10 | Nc1ncn(CC(=O)Nc2ccc(CC3CC[C@H]([C@H](O)c4cccnc4)N3)cc2)n1 (stereo partly shown) [Example 20] | –
11 to 100 | O=C(Cc1ncccn1)Nc1ccc(CC2CC[C@H]([C@H](O)c3cccnc3)N2)cc1 (stereo partly shown) [Example 22] | –
1 to 10 | O=C(Cc1nnc(-c2cscn2)[nH]1)Nc1ccc(CC2CC[C@H]([C@H](O)c3cccnc3)N2)cc1 (stereo partly shown) [Example 27] | –
101 to 1000 | Cc1cccc(CC(=O)Nc2ccc(CC3CC[C@H]([C@H](O)c4cccnc4)N3)cc2)n1 (stereo partly shown) [Example 28] | –
11 to 100 | O=C(Cc1csc(C(F)(F)F)n1)Nc1ccc(CC2CC[C@H]([C@H](O)c3cccnc3)N2)cc1 (stereo partly shown) [Example 29] | –
11 to 100 | O=C(Nc1ccc(CC2CC[C@H]([C@H](O)c3cccnc3)N2)cc1)c1ccccc1CCc1ccccc1 (stereo partly shown) [Example 32] | –
101 to 1000 | O=C(Nc1ccc(CC2CC[C@H]([C@H](O)c3cccnc3)N2)cc1)c1ccccc1C1CCCCC1 (stereo partly shown) [Example 36] | –
101 to 1000 | O=C(Nc1ccc(CC2CC[C@H]([C@H](O)c3cccnc3)N2)cc1)c1ccccc1N1CCCC1 (stereo partly shown) [Example 37] | –
11 to 100 | O=C(Cn1cncn1)Nc1ccc(CC2CC[C@H]([C@H](O)c3cccnc3)N2)cc1 (stereo partly shown) [Example 38] | –
11 to 100 | O=C(Cn1nccn1)Nc1ccc(CC2CC[C@H]([C@H](O)c3cccnc3)N2)cc1 (stereo partly shown) [Example 39] | –
11 to 100 | O=C(Cc1cnccn1)Nc1ccc(CC2CC[C@H]([C@H](O)c3cccnc3)N2)cc1 (stereo partly shown) [Example 41] | –
1 to 10 | O=C(CN1CCSC1=O)Nc1ccc(CC2CC[C@H]([C@H](O)c3cccnc3)N2)cc1 (stereo partly shown) [Example 45] | –
11 to 100 | Cc1cn(CC(=O)Nc2ccc(CC3CC[C@H]([C@H](O)c4cccnc4)N3)cc2)nn1 (stereo partly shown) [Example 46] | –
11 to 100 | COc1ncncc1CC(=O)Nc1ccc(CC2CC[C@H]([C@H](O)c3cccnc3)N2)cc1 (stereo partly shown) [Example 48] | –
1 to 10 | COc1cc2ncn(CC(=O)Nc3ccc(CC4CC[C@H]([C@H](O)c5cccnc5)N4)cc3)c(=O)c2cc1OC (stereo partly shown) [Example 51] | –
1 to 10 | O=C(Cn1c(=O)[nH]c(=O)c2ccccc21)Nc1ccc(CC2CC[C@H]([C@H](O)c3cccnc3)N2)cc1 (stereo partly shown) [Example 57] | –
1 to 10 | O=C(Cn1c(=O)cnc2ccccc21)Nc1ccc(CC2CC[C@H]([C@H](O)c3cccnc3)N2)cc1 (stereo partly shown) [Example 58] | –
1 to 10 | O=C(Cn1cccnc1=O)Nc1ccc(CC2CC[C@H]([C@H](O)c3cccnc3)N2)cc1 (stereo partly shown) [Example 60] | –
